# Measurements published in patent publication US20070185161A1, “Bicyclic substituted indole-derivative steroid hormone nuclear receptor modulators” (priority 2004, published 2007).
# Target: T1, human MR (Homo sapiens, UniProt P08235)
# T1 construct: The full length human MR gene is cloned from a human kidney or human brain cDNA library; made in house; host or cells: SF9 insect cells (baculovirus)
# T1 sequence (P08235 1-984): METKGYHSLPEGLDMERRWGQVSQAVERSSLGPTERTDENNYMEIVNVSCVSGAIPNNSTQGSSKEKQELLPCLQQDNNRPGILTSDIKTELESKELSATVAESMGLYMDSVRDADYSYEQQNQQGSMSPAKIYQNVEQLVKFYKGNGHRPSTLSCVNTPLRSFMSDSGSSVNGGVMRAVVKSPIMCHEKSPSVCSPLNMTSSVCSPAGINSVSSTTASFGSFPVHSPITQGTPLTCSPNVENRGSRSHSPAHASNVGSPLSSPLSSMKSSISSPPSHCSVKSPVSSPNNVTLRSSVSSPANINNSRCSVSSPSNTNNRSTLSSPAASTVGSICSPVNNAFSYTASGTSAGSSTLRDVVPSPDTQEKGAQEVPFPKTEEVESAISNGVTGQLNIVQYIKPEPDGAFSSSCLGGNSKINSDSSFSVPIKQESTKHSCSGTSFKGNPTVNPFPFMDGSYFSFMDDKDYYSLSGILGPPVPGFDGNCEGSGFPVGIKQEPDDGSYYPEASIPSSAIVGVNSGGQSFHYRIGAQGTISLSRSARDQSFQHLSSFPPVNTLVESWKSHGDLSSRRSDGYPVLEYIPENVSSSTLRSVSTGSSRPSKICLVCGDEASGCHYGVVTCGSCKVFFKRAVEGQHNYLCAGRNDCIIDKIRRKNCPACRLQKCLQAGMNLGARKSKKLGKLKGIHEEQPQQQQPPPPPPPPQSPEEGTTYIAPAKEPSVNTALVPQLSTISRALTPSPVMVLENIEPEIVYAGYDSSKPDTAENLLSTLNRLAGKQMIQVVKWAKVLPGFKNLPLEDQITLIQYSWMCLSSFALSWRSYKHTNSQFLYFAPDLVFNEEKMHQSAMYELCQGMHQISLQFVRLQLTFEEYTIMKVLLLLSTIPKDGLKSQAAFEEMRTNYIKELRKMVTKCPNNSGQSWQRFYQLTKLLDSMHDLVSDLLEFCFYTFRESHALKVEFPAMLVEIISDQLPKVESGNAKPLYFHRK
# Experiment: Mineralocorticoid Receptor Binding Assay (Method 1)
# Conditions: [3H]-aldosterone, racemic mixture unless otherwise indicated
# Description: The full length human MR gene is cloned from a human kidney or human brain cDNA library. Briefly, using synthetic oligonucleotide primers (Eli Lilly and Company, Indianapolis) directed to nucleotides 20-54 and 3700-3666 of the human MR, polymerase chain reaction (PCR) is performed under standard conditions using a human cDNA library. The PCR reaction is performed in a final volume of 50 μl containing about 1 μl of a 50× stock solution of polymerase; about 1 μl of a 50× stock solution of dNTP; about 5 μl of an appropriate PCR buffer; about 1 μl of each primer; about 5 μl of a H. kidney or H. brain cDNA library; and about 36 μl of water. The reaction is allowed to denature for about 30 seconds at 95 degrees Celsius, anneal for about 30 seconds at 55 degrees Celsius, and extend for about 5 minutes at 72 degrees Celsius, the sequence being repeated for a total of about 35 cycles. The desired PCR product (3.68 Kb) is confirmed by gel electrophoresis and subsequently cut from the gel and stored at about −20 degrees Celsius until extraction. To extract the cDNA product from the agarose gel, the QIAEX II Gel Extraction protocol (QIAGEN, Inc.) is employed according to the manufacturer's instructions. Following extraction, the MR cDNA is cloned into an appropriate cloning vector (Zero Blunt TOPO PCR Cloning Kit (Invitrogen, Inc.) and a pAcHLT-baculovirus transfer vector (B.D./Pharminogen), then expressed in SF9 insect cells, essentially according to manufacturer's instructions. Sf9 cells are grown at a scale where gram quantity cell pellets are obtained for subsequent use in the MR binding assay. Harvested cell pellets are lysed by repeated freeze-thaw cycles (about 4) in a suitable lysis buffer then centrifuged at about 1×10^3 G (with the supernatant being saved for future assays).
# MR binding assays are performed in a final total volume of about 250 μl containing about 20-25 μg of protein and 0.5 nM of [^3H]-aldosterone plus varying concentrations of test compound or vehicle. The assay binding buffer consists of 30 mM sodium molybdate, 30 mM of TRIS-HCl, 5 mM sodium phosphate, 5 mM sodium pyrophosphate, and about 10% glycerol, pH=7.5.
# Briefly, assays are prepared at RT in 96-well Falcon 3072 plates, each well containing 210 μl of binding buffer, 10 μl of [^3H]-aldosterone, 10 μl of test compound/vehicle, and 20 μl of the resuspended receptor protein extract. Incubations are carried out at 4 degrees Celsius with shaking for about 16 hours. 200 μl aliquots of each incubation are filtered onto Millipore HA 0.45 micron 96-well filter plates, pre-moistened with cold 30 mM TRIS-HCl. The filter plates are suctioned dry with vacuum and immediately washed 3× with cold 30 mM TRIS-HCl. The plates are then punched out and the amount of receptor-ligand complex is determined by liquid scintillation counting using 4 ml of Ready Protein Plus™ liquid scintillation cocktail.
# IC50 values (defined as the concentration of test compound required to decrease [^3H]-aldosterone binding by 50%) are then determined. Ki values for each respective test compound can then be calculated by application of the Cheng-Prusoff equation as described in Cheng et al., Relationship Between The Inhibition Constant (Ki) and The Concentration of Inhibitor Which Causes 50% Inhibition (IC50) of an Enzymatic Reaction, Biochem. Pharmacol., 22: 3099-31088; (1973).
row,Ki [nM],SMILES
1,≤ 500,"CC1(c2c[nH]c3c(NS(C)(=O)=O)cccc23)CCCc2cc(F)cc(F)c21 (racemic) [Example 30, N-[3-(6,8-Difluoro-1-methyl-1,2,3,4-tetrahydro-naphthalen-1-yl)-1H-indol-7-yl]-methanesulfonamide]"
2,≤ 500,"CC1(c2c[nH]c3c(NS(C)(=O)=O)cccc23)CCCc2cc(F)cc(F)c21 (single isomer, unassigned) [Example 30A, N-[3-(6,8-Difluoro-1-methyl-1,2,3,4-tetrahydro-naphthalen-1-yl)-1H-indol-7-yl]-methanesulfonamide]"
3,≤ 500,"CC1(c2c[nH]c3c(NS(C)(=O)=O)cccc23)CCCc2cc(F)cc(F)c21 (single isomer, unassigned) [Example 30B, N-[3-(6,8-Difluoro-1-methyl-1,2,3,4-tetrahydro-naphthalen-1-yl)-1H-indol-7-yl]-methanesulfonamide]"
4,≤ 500,"CCC1(c2c[nH]c3c(NS(C)(=O)=O)cccc23)CCCc2cc(F)cc(F)c21 (single isomer, unassigned) [Example 31A, N-[3-(1-Ethyl-6,8-difluoro-1,2,3,4-tetrahydro-naphthalen-1-yl)-1H-indol-7-yl]-methanesulfonamide]"
5,≤ 500,"CCC1(c2c[nH]c3c(NS(C)(=O)=O)cccc23)CCCc2cc(F)cc(F)c21 (single isomer, unassigned) [Example 31B, N-[3-(1-Ethyl-6,8-difluoro-1,2,3,4-tetrahydro-naphthalen-1-yl)-1H-indol-7-yl]-methanesulfonamide]"
6,≤ 500,"CCC1(c2c[nH]c3ccccc23)CCc2cc(F)ccc21 (centres unmarked) [Example 6, 3-(1-Ethyl-5-fluoro-indan-1-yl)-1H-indole]"
7,≤ 500,"CCC1(c2c[nH]c3c(F)cccc23)CCc2cc(F)ccc21 (centres unmarked) [Example 7, 3-(1-Ethyl-5-fluoro-indan-1-yl)-7-fluoro-1H-indole]"
8,≤ 500,"CCC1(c2c[nH]c3c(Br)cccc23)CCc2cc(F)ccc21 (centres unmarked) [Example 8, 7-Bromo-3-(1-ethyl-5-fluoro-indan-1-yl)-1H-indole]"
9,≤ 500,"CCC1(c2c[nH]c3c(Cl)cccc23)CCc2cc(F)ccc21 (centres unmarked) [Example 9, 7-Chloro-3-(1-ethyl-5-fluoro-indan-1-yl)-1H-indole]"
10,≤ 1000,"CCc1cccc2c(C3(CC)CCc4cc(F)ccc43)c[nH]c12 (centres unmarked) [Example 10, 7-Ethyl-3-(1-ethyl-5-fluoro-indan-1-yl)-1H-indole]"
11,≤ 500,"CCC1(c2c[nH]c3c(OC)cccc23)CCc2cc(F)ccc21 (centres unmarked) [Example 12, 3-(1-Ethyl-5-fluoro-indan-1-yl)-7-methoxy-1H-indole]"

# Target: T2, human GR (glucocorticoid receptor) (Homo sapiens, UniProt P04150)
# T2 construct: expressed in transfected cells; host or cells: 293 cells
# T2 sequence (P04150 1-777): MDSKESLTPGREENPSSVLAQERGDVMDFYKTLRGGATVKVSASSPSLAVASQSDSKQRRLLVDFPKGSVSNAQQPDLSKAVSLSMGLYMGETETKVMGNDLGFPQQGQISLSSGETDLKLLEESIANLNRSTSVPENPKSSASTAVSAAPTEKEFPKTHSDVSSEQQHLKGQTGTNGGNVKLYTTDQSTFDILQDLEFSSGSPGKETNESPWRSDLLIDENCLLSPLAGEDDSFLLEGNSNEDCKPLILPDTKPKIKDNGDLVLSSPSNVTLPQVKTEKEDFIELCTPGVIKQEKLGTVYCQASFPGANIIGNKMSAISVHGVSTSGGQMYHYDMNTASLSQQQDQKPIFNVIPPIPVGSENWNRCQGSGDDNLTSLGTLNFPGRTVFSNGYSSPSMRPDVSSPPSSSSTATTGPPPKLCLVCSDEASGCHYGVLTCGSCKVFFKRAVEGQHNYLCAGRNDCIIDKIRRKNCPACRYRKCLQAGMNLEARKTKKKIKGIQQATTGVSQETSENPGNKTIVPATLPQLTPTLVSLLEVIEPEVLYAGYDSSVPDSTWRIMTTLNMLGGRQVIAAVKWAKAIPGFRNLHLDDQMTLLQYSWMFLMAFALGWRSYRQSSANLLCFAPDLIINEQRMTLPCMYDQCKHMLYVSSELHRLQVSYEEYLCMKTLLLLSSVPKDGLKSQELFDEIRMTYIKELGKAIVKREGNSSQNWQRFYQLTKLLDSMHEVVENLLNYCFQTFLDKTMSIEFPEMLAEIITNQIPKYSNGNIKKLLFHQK
# Experiment: Alternative Binding Assay Protocol (Method 2), GR
# Conditions: 3H-dexamethasone, 293-GR lysate, racemic mixture unless otherwise indicated
# Description: Cell lysates from 293 cells overexpressing human GR (glucocorticoid receptor), AR (androgen receptor), MR (mineralocorticoid receptor) or PR (progesterone receptor) are used for competition binding assays to determine Ki values for test compounds. Briefly, competition binding assays are run in a buffer containing 20 mM Hepes, pH 7.6, 0.2 mM EDTA, 75 mM NaCl, 1.5 mM MgCl2, 20% glycerol, 20 mM sodium molybdate, 0.2 mM DTT, 20 ug/ml aprotinin and 20 ug/ml leupeptin, using either 0.3 nM ^3H-dexamethasone for GR binding, 0.36 nM ^3H-methyltrienolone for AR binding, 0.25 nM ^3H-aldosterone for MR binding, or 0.29 nM ^3H-methyltrienolone for PR binding, and either 20 ug 293-GR lysate, 22 ug 293-AR lysate, 20 ug 293-MR lysate or 40 ug 293-PR lysate per well. Competing compounds are added at various concentraions in half-log increments. Non-specific binding is determined in the presence of 500 nM dexamethasone for GR binding, 500 nM aldosterone for MR binding, or 500 nM methyltrienolone for AR and PR binding,. The binding reaction (140 μl) is incubated for overnight at […], then 70 μl of cold charcoal-dextran buffer (containing per 50 ml of assay buffer, 0.75 g of charcoal and 0.25 g of dextran) is added to each reaction. Plates are mixed 8 minutes on an orbital shaker at 4° C. Plates are then centrifuged at 3,000 rpm at 4° C. for 10 minutes. An aliquot of 120 μl of the mix is transferred to another 96-well plate and 175 μl of Wallac Optiphase “Hisafe 3” scintillation fluid is added to each well. Plates are sealed and shaken vigorously on an orbital shaker. After an incubation of 2 hrs, plates are read in a Wallac Microbeta counter. The data is used to calculate an IC50 and % Inhibition at 10 μM. The Kd for ^3H-dexamethasone for GR binding, ^3H-methyltrienolone for AR binding, ^3H-aldosterone for MR binding, or ^3H-methyltrienolone for PR binding, is determined by saturation binding. The IC50 values for compounds are converted to Ki using Cheng-Prusoff equation and the Kd determined by saturation binding assay.
row,Ki [nM],SMILES
1,≤ 10000,"CN(C)CCCC1(c2c[nH]c3c(NS(C)(=O)=O)cccc23)CCc2cc(F)ccc21 (centres unmarked) [Example 43, N-{3-[1-(3-Dimethylamino-propyl)-5-fluoro-indan-1-yl]-1H-indol-7-yl}-methanesulfonamide]"

# Tested on: patients suffering from advanced CHF
# Experiment: not given
# Conditions: in combination with standard CHF therapy; cited from earlier work
SMILES,reduced cardiac related mortality [%],reduced frequency of hospitalization [%]
CC(=O)S[C@@H]1CC2=CC(=O)CC[C@]2(C)[C@H]2CC[C@@]3(C)[C@@H](CC[C@@]34CCC(=O)O4)[C@H]12 [spironolactone],30,35
